The text below walks through data of PubChem BioAssay (NCI).

Each structure is given as a SMILES string.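 Test compounds were applied to cells in 96-well plates for 48 hours at 5 doses. At the GI50, growth is halved. TGI denotes the concentration required for complete inhibition of growth.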

Some test systems named below: A498 renal; HL-60(TB) leukemia; HS 578T breast; K-562 leukemia; OVCAR-3 ovarian; RPMI-8226 leukemia; SNB-19 CNS; SW-620 colon; UO-31 renal; HCC-2998 colon.
Common to all, as to experiment: NCI tumour cell line growth inhibition, 48 h

Take `CC(O)(CNS(=O)(=O)c1ccccc1)c1ccccc1` (stereo not drawn): the TGI in the assay with A498 renal, in the assay with HL-60(TB) leukemia, in the assay with HS 578T breast, with K-562 leukemia, in the assay on OVCAR-3 ovarian and in the assay on RPMI-8226 leukemia was greater than 100 µM each time. The TGI in the assay on SNB-19 CNS, in the assay on SW-620 colon and with UO-31 renal was greater than 100 µM throughout.

Take `Cc1ccc(NC(=O)C2C(=O)N(c3ccc(C)c(C)c3)C(=O)/C2=N\NC(N)=S)cc1C` (stereo not drawn): the TGI with HL-60(TB) leukemia, in the assay on K-562 leukemia, in the assay on OVCAR-3 ovarian, with RPMI-8226 leukemia, in the assay with SNB-19 CNS and with SW-620 colon was greater than 100 µM throughout. The same compound had a TGI in the assay with UO-31 renal greater than 100 µM.

For the compound `C1=C(c2ccccc2)SC=C(c2ccccc2)S1`, the TGI is greater than 100 µM in the assay with A498 renal; greater than 100 µM in the assay with HL-60(TB) leukemia; greater than 100 µM in the assay on HS 578T breast; 89.3 µM in the assay on K-562 leukemia; greater than 100 µM in the assay with OVCAR-3 ovarian; greater than 100 µM with RPMI-8226 leukemia. Further, the TGI with SNB-19 CNS, in the assay with SW-620 colon and in the assay on UO-31 renal was greater than 100 µM each time.

`Cc1[nH]nc2c1C(=O)C=C(N(CCO)c1ccccc1)C2=O`: the TGI in the assay with HCC-2998 colon, in the assay with HL-60(TB) leukemia, in the assay on K-562 leukemia, in the assay with OVCAR-3 ovarian, with RPMI-8226 leukemia and in the assay with SNB-19 CNS was greater than 100 µM in each case. In addition, the TGI in the assay with SW-620 colon and in the assay on UO-31 renal was greater than 100 µM in each case.

For `CCCCN(CCCC)C(=O)C(=O)C(C)C(=O)CC` (stereo not drawn), the TGI in the assay on HCC-2998 colon, with HL-60(TB) leukemia, with K-562 leukemia, in the assay with OVCAR-3 ovarian, in the assay on RPMI-8226 leukemia and in the assay with SNB-19 CNS was greater than 100 µM throughout. Further, the TGI in the assay with SW-620 colon and with UO-31 renal was greater than 100 µM throughout.

As for `Cc1nc(Nc2ccccc2)sc1C(=O)NNc1ccc([N+](=O)[O-])cc1[N+](=O)[O-]`, the TGI in the assay on HCC-2998 colon is greater than 100 µM; in the assay with HL-60(TB) leukemia, 41.2 µM; with K-562 leukemia, 60.1 µM; with OVCAR-3 ovarian, greater than 100 µM; in the assay on SNB-19 CNS, greater than 100 µM; in the assay with SW-620 colon, greater than 100 µM. Moreover, the TGI in the assay with UO-31 renal is greater than 100 µM.

In the case of `c1cc(-c2cn[nH]c2)cc(-c2cn[nH]c2)c1`, the TGI with A498 renal is 89.7 µM; in the assay with HCC-2998 colon, greater than 100 µM; with HL-60(TB) leukemia it was 66.6 µM; in the assay on K-562 leukemia, greater than 100 µM; with OVCAR-3 ovarian it was greater than 100 µM; in the assay with RPMI-8226 leukemia, greater than 100 µM. For the same compound, the values for the TGI with SNB-19 CNS, in the assay on SW-620 colon and in the assay on UO-31 renal were greater than 100 µM, greater than 100 µM and 58.4 µM, respectively.

As to `CCc1cccc(C(C)CC)c1NC(=O)C(=O)C(CC(=O)Nc1ccc(Cl)c(Cl)c1)C(=O)OC` (stereo not drawn), the TGI with A498 renal, in the assay with HCC-2998 colon, in the assay with HL-60(TB) leukemia, in the assay on K-562 leukemia, in the assay with OVCAR-3 ovarian and with RPMI-8226 leukemia was greater than 100 µM each time. Also, the TGI in the assay on SNB-19 CNS, with SW-620 colon and with UO-31 renal was greater than 100 µM each time.

For the compound `CC1CCP(=O)(c2ccccc2)CC1` (stereo not drawn), the TGI in the assay on HCC-2998 colon, in the assay on HL-60(TB) leukemia, in the assay with K-562 leukemia, with OVCAR-3 ovarian, with RPMI-8226 leukemia and with SNB-19 CNS was greater than 100 µM in each case. Besides, the TGI in the assay on SW-620 colon and in the assay on UO-31 renal was greater than 100 µM throughout.

As to `COc1ccc(C(=O)C(C(=O)C(=O)Nc2nccs2)c2ccc(OC)cc2)cc1` (stereo not drawn), the TGI with A498 renal, in the assay with K-562 leukemia, with OVCAR-3 ovarian, with RPMI-8226 leukemia, in the assay with SNB-19 CNS and in the assay with SW-620 colon was greater than 100 µM in each case. The same compound returned a TGI in the assay with UO-31 renal greater than 100 µM.

Regarding `O=C(O)c1cscc1Cc1cccs1`, the TGI in the assay on A498 renal, in the assay with HL-60(TB) leukemia, in the assay on HS 578T breast, in the assay with K-562 leukemia, in the assay with OVCAR-3 ovarian and in the assay with RPMI-8226 leukemia was greater than 100 µM throughout. In addition, the TGI in the assay on SNB-19 CNS and in the assay with SW-620 colon was greater than 100 µM throughout.

Take `O=[N+]([O-])c1ccc(/C=C(/c2ccc([N+](=O)[O-])o2)S(=O)(=O)c2ccccc2)o1`: the TGI worked out at 8.67 µM in the assay on HL-60(TB) leukemia; 44.3 µM in the assay on HS 578T breast; 10.2 µM in the assay with K-562 leukemia; 29 µM in the assay with OVCAR-3 ovarian; 0.483 µM in the assay on RPMI-8226 leukemia; 35.7 µM in the assay with SNB-19 CNS. Also, the TGI was 5.55 µM in the assay with SW-620 colon and 16.3 µM in the assay with UO-31 renal.

As for `O=C(O)/C(=C\c1ccccc1Cl)S(=O)(=O)c1ccccc1`, the TGI with A498 renal, in the assay with HCC-2998 colon, with HL-60(TB) leukemia, with K-562 leukemia, with RPMI-8226 leukemia and in the assay with SNB-19 CNS was greater than 100 µM in each case. For the same compound, the TGI with SW-620 colon and in the assay on UO-31 renal was greater than 100 µM throughout.

In the case of `N[C@@H]1CCCC[C@@H]1N.O=C([O-])CN(CP(=O)([O-])[O-])CP(=O)([O-])[O-].[Pt+2]`, the GI50 in the assay with A498 renal, in the assay with HCC-2998 colon, in the assay on HL-60(TB) leukemia, with K-562 leukemia, with OVCAR-3 ovarian and in the assay with RPMI-8226 leukemia was greater than 100 µM in each case. The GI50 with SNB-19 CNS, in the assay on SW-620 colon and in the assay with UO-31 renal was greater than 100 µM throughout. In addition, the TGI in the assay on A498 renal, with HCC-2998 colon, in the assay with HL-60(TB) leukemia, with K-562 leukemia, in the assay with OVCAR-3 ovarian and in the assay on RPMI-8226 leukemia was greater than 100 µM each time. The TGI in the assay on SNB-19 CNS, in the assay with SW-620 colon and in the assay with UO-31 renal was greater than 100 µM each time.
